Experimental data taken from US5208032A, “Increasing the growth of turkeys using implant of 19-nortestosterone” (Rutgers, The State University of New Jersey, priority 1992, dated 1993).

Tests used:
[1] = system: testosterone antiserum; assay: Radioimmunoassay for testosterone: antiserum cross-reaction and inhibition of binding; design: species or system rabbits; conditions: standard curve
Experimental: Plasma concentrations of testosterone were assayed using component kits from Immuchem Corporation (Carson, Calif.) in which charcoal-stripped chicken plasma (free of testosterone) was used to make up the standards. The antibody is covalently bound to the inner surface of each polypropylene tube (testosterone-19-carboxymethylether-BSA was the antigen used to generate the antiserum in rabbits). To these tubes (at room temperature), a 50 microliter volume of either standard or unknown plasma as added directly without extraction. Following this, a 1000-microliter volume (^~ 40,000 cpm) of ^125 I-testosterone (purified by HPLC and radio-iodinated at position 19; Immuchem Corp.) in phosphosaline buffer-gelatin (pH 7.0) was added and the mixture was vortex mixed briefly. After a 2 hour incubation at room temperature, tubes were placed into styrofoam holding racks and the supernatant decanted onto tin trays lined with newspapers. Residual supernatant left on inside walls of tubes was removed by everting styrofoam holding racks and impacting them onto dry absorbent paper towels. At this point, the assay tubes, with their wall bound antibody-antigen complexes, were counted on a Beckman 5500 gamma counter to determine the radioactivity (^125 I-testosterone) which was antibody-bound. The plasma concentrations of testosterone in unknown samples were determine based on the standards (from 0.10-10 ng/ml) in charcoal-stripped chicken plasma included with each assay.
The Immuchem testosterone antiserum cross-reacts 100% with testosterone, 7.8% with 5-alpha-DHT, 0.56% with 4-adrosten-3,17-dione, and less than 0.01% with 5-alpha-androstane-3-alpha,17-beta-diol and estrogens (manufacturer statement). […] The mean between-assay CV for low and high plasma pools was less than 11.0% (n=5).

[2] = Growth of castrate male turkeys implanted with 19-nortestosterone (Study III, Table V); assay type: in vivo, Large White Nicholas turkeys; conditions: castrated male, 5-cm capsule
Experimental: The same large white strain of turkey (received 1 day posthatching from Nicholas Breeding Farms, CA) was used in all studies. Poults were reared in deep litter brooder pens from 1 day posthatch and exposed to constant light until initiation of Studies I and III or through completion in the case of Study II. Studies I and III were conducted in an environmentally controlled room (photoperiod 12L:12D) with birds housed individually in wire-floored layer cages (space dimensions of 0.31 W×0.46 L×0.53 H meters per cage). Water and feed (Agway Game and Turkey Starter Crumbles) was available at all times. Turkeys were rank ordered by weight and distributed into treatment groups of equal mean body weights at the start of each Study (I, II and III).
Body weight determinations were made at the second and final week of each study, and several organs and tissues were excised and immediately weighed at the time of necropsy. Final shank-toe length, as an indicator of skeletal growth, was also determined. Birds were sacrificed via exanguination by laceration of the jugular vein. Specific details on the experimental design and conduct of each turkey study will follow.
Male and female turkeys were either sham-operated or castrated (Quigley, 1962) at 4 weeks of age in the same manner as previously described for chickens. However, due to the small size and extremely viscous nature of the turkey testicle at 2 weeks of age, birds were castrated at 4 weeks of age. […] This was important since when a portion of the testicle is left behind or dropped back inside the body cavity after having been torn loose, the bird will become what is called in the poultry industry, a "slip".
Pre- (4 weeks) and post-surgically (1 week), birds were floor-reared together on pine shavings. At 5 weeks of age, birds were transferred to individual layer cages (dimensions as in Study I) in an environmentally controlled animal room. One week later (6 weeks of age), birds were assigned to 4 groups (9 birds/group). Group 1 was composed of intact males (sham-operated); Group 2, intact females (sham-operated); Group 3, castrated males implanted that same day with cholesterol-filled Silastic polysiloxane capsules (5.0-cm); and Group 4, castrated males implanted that same day with 19-nortestosterone-filled Silastic polysiloxane capsules (5.0-cm). Castrated males were rank ordered by weight prior to group assignment. Male and female groups were composed of birds which had the intermediate body weights from a pool of 15 birds for each sex. Birds were randomized (planned) into cages among tiers (5 cages per tier) and racks, similar to that of Study I, in order to eliminate any rack (4) or tier (3 vertical) effects within the room. Birds served as individual treatment units for all parameters measured including feed consumption (i.e., supplied with individual box-type feeders) and were placed into every other cage starting on the top tier in rack 1.

[3] = system: 5-alpha-DHT anti-serum; conditions: antibody provided by Dr. Alan L. Johnson; cited from earlier work
[4] = system: 5-alpha-DHT anti-serum; assay: Radioimmunoassay for 5-alpha-DHT: antiserum reaction and inhibition of binding; conditions: standard curve
Experimental: The following will briefly outline the procedure used for determination of plasma concentration of 5-alpha-DHT. The 5-alpha-DHT anti-serum (Ford's-F/1) was kindly provided by Dr. Alan L. Johnson, Rutgers University, New Brunswick, N.J. This antibody reacted 100% to 5-alpha-DHT,7.9% to testosterone and 11.4% to androstenedione. The antibody was diluted to 1:20,000 in PBSG and stored at 4° C. until added to assay that same day.
5-alpha-Dihydrotestosterone was extracted from plasma ([…]) using benzene:toluene (2:1), with an extraction efficiency of 83.4±6.4 (SD) %. Since further purification of the crude sample extract (i.e., by column chromatography) was not performed, it became necessary to also add extracts from steroid free plasma (i.e., stripped by dextran-coated charcoal) to the standard curve tubes prior to the addition of the different doses of the standard 5-alpha-DHT solutions (3.125 to 1600 pg). […] Following the drying process (Savant-high speed concentrator), 200 microliters 5-alpha-DHT anti-serum solution wwere added to each standard or unknown. After brief vortex mixing, 200 microliters of [1,2,3,7^-3 H] 5-alpha-DHT (^~ 10,000 cpm) was added to each tube and the mixture allowed to incubate overnight at 4° C. The antibody-hormone-bound fraction was separated from the non-bound fraction using a charcoal-dextran suspension. Radioactivity of the bound fraction was measured using a liquid scintillation counter. The percentage bound of the standards was plotted against the log of the hormone concentration to yield a standard curve. Potency estimates of the unknowns were calculated from this standard curve.
Sensitivity of the assay was less than 50.0 pg/ml, while the mean within-assay CV for the low (37.7 pg/ml for plasma stripped and pooled from 3 adult male White Leghorn chickens) and high (265 pg/ml for plasma pooled and not stripped from 3 adult male White Leghorn chickens) plasma pools (n=5) wwas less than 9.4%. The mean between-assay CV for the low and high plasma pools was less than 12.9% (n=7).

[5] = change vs castrated control, unsigned (increase)

C[C@]12CC[C@H]3[C@@H](CCC4=CC(=O)CC[C@@]43C)[C@@H]1CC[C@@H]2O [Testosterone, testosterone]
80 percent inhibition of binding ([1]; n=5): 462.5±1.5 pg/tube | Twenty percent inhibition of binding ([1]; n=5): 15.8±1.7 pg/tube | 50 percent inhibition of binding ([1]; n=5, 1.95 pg to 500 pg): 78.8±9.6 pg/tube

C[C@]12CC[C@H]3[C@@H](CCC4=CC(=O)CC[C@@H]43)[C@@H]1CC[C@@H]2O [19-Nortestosterone, 19-nortestosterone]
Abdominal Adipose [2]: 4.92 ± 0.91 | Average Daily Gain [2]: 106 ± 3 g | Feed/Gain Ratio [2]: 1.86 ± 0.05 | Final 9-Week Body Weight [2]: 3643 ± 64 g | Final 9-Week Shank-Toe Length [2]: 21.44 ± 0.18 cm | Right Breast Muscle [2]: 303 ± 13 g | Abdominal Adipose (%) ([2]; change vs castrated control, unsigned (decrease)): 65.6% | Average Daily Gain (%) [2, 5]: 16.5% | Final 9-Week Body Weight (%) [2, 5]: 5.9% | Right Breast Muscle (%) [2, 5]: 14.8% | Feed Efficiency ([2]; change vs castrated control, column head prints (g), cells %): 16.6%

C[C@]12CCC(=O)C[C@@H]1CC[C@@H]1[C@@H]2CC[C@]2(C)[C@@H](O)CC[C@@H]12 [5-alpha-DHT, 5-alpha-dihydrotestosterone]
reaction with 5-alpha-DHT anti-serum (Ford's-F/1) [3]: 100% | 80 percent inhibition of binding ([4]; n=7): 321.4±31.9 pg/tube | Twenty percent inhibition of binding ([4]; n=7): 16.9±2.1 pg/tube | 50 percent inhibition of binding ([4]; n=7, 3.125 to 1600 pg): 67.4±8.2 pg/tube
